Results on 6 molecules are retold here after ChEMBL document CHEMBL1201862, “PubChem BioAssay data set” (2004).

For one series, the system named is HEK293. Nature of the series: Fluorescence-based counterscreen for potentiators or agonists of NPY-Y2: cell-based high-throughput dose response assay to identify inhibitors of cyclic nucleotide gated ion channel (CNGC) activity. In this assay, the parental HEK293 cell line transfected with a cyclic-nucleotide gated ion channel (CNGC)-based cAMP sensor is used to measure inhibition of isoproterenol-induced CNGC activity by test compound. The format is functional. The note with it: Homo sapiens. (In general: The purpose of a counterscreen is to sort out artefacts and off-target activity.);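 note: stimulus is 1 µM isoproterenol at EC100 plus PDE inhibitor Ro 20-1724 at 25 µM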

Series [1] can be described thus: microbe, parasite or virus in culture. The format is functional. The note with it: Mycobacterium tuberculosis.
Series [2] concerns the target Neuropeptide Y receptor type 2 (Homo sapiens, UniProt P49146). Kind of series: Fluorescence-based cell-based high-throughput dose response assay for agonists of NPY-Y2. [Related pubchem assays: 1703 (Screening assay (CNGC inhibitors).), 1359 (Screening assay (NPY-Y2 potentiators or agonists).), 1304 (Screening assay (NPY-Y1 potentiators or agonists).), 1710 (Screening assay (NPY-Y2 agonists).), 1791 (Summary AID.)]. The format is functional.

Series [3] deals with Neuropeptide Y receptor type 1 (Homo sapiens, UniProt P25929). Nature of the series: Fluorescence-based counterscreen for agonists of NPY-Y2: cell-based high-throughput dose response assay for agonists of NPY-Y1. The format is functional.
Chain of Neuropeptide Y receptor type 1 (P25929 whole entry): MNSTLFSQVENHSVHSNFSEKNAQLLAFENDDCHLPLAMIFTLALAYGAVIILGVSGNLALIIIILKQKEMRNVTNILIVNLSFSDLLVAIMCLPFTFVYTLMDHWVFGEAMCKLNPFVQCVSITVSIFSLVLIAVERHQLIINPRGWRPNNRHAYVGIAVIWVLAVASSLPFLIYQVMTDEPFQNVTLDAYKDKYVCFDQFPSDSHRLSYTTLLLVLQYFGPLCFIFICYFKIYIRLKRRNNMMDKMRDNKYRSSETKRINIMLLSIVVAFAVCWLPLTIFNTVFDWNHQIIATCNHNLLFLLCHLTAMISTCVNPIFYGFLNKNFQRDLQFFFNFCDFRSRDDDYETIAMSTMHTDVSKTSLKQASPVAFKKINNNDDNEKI
In the next series the test system is Streptococcus. Kind of series: Luminescence Microorganism-Based Dose Response Follow up to Identify Compounds Cytotoxic to Streptococcus. [Related pubchem assays: 1677 (Project Summary), 1915, 1914, 1902 (Retest at Dose), 1900 (Counter Screen), 1662 (Primary HTS)]. The format is functional, organism-based.
The nature of series [4]: luciferase reporter signal reduction – luminescence, H4-C neuroglioblastoma cells, dose response (AID 2458).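 Note: H4 neuroglioblastoma cells stably carrying a luciferase reporter gene fusion.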 The format is functional, cell-based. (Reporter assays use an easily measured gene product as a stand-in for the process of interest.)
Series [5] can be described thus: inhibitors of SNCA 5'UTR-driven translation, confirmation, luminescence, H4 neuroglioblastoma cells, dose confirmation (AID 2454).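 Note: H4 neuroglioblastoma cells carrying an alpha-synuclein 5'UTR luciferase reporter; potency for inhibition of the luciferase signal.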 The format is functional, cell-based.
A short description of series [6]: cytotoxicity in HEK-293T NF-kB-Luc cells, dose response, cytotoxicity control for B/T-cell NF-kB inhibitor project, cell-based, uHTS hits (AID 489019).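 Note: IC50 reflects cytotoxicity as loss of cell viability.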 The format is functional.
Series [7] addresses Heat shock protein HSP 90-alpha (Homo sapiens, UniProt P07900). Kind of series: Luminescence-based dose response biochemical high throughput screening assay for inhibitors of the Heat Shock Protein 90 (HSP90). [Related pubchem assays: 1831 (Summary AID.), 1846 (Confirmation screen.), 1789 (Primary screen.)].
Series [8] is described as follows: inhibitors of control Renilla luciferase reporter, dose response, counter-screen for Shn3 3'UTR targeting project, Clone20-Shn3RL cells, dual-Glo, cherry-pick, set 2 (AID 720724). The format is functional, cell-based. The note with it: Dual-Go Shn3RL.
Series [9] concerns the target T1, Heat shock factor protein 1 (Mus musculus, UniProt P38532).
T1 sequence (P38532 whole entry): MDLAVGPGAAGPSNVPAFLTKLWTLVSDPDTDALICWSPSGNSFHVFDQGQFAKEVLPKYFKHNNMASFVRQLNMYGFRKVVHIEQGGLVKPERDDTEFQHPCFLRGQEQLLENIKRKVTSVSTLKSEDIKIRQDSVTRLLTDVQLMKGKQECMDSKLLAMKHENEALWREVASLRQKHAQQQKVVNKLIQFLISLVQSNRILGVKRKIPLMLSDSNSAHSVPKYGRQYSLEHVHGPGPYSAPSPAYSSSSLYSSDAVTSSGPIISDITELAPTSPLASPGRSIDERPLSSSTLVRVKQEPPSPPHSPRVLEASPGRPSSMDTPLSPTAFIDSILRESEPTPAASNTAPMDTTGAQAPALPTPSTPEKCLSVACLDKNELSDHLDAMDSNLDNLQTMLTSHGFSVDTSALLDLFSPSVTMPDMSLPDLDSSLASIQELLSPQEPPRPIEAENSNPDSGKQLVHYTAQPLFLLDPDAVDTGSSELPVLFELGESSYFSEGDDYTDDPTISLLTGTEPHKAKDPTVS
Kind of series: inhibition of MG132-induced HSE-luciferase signal, confirmation, cell-based, NIH3T3, luminescence, dose retest (AID 2382).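 Note: NIH3T3 fibroblasts with HSF1-driven luciferase reporter stressed by proteasome inhibitor MG132; luminescence from HSF1-driven luciferase expression after 8 hours of MG132 stress.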 The format is functional.

Series [10] is described as follows: Luminescence Cell-Based Dose Response HTS to Identify Inhibitors of 5'UTR Stem-Loop Driven Prion Protein mRNA Translation in H4 Neuroglioblastoma Cells. [Related pubchem assays: 1827 (Project Summary), 1813 (Primary HTS)]. The format is functional.
The nature of series [11]: off-target signal loss in HeLa-CEM21 co-culture – HeLa F-luc CTL cells, cherry-picked, counter-screen for HIV-1 Env fusion inhibitor project, dose response (AID 652040).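 Note: potency for signal decrease marking cytotoxic or nonspecific inhibition.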 The format is functional, cell-based.
A short description of series [12]: Shn3 3'UTR reporter inhibitors, dose response, cell-based, Clone20 osteoblasts, firefly luciferase, cherry-picked (AID 624132).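 Note: firefly luciferase luminescence from reporter carrying the Shn3 3'UTR in osteoblasts.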 The format is functional.
A further series is described as follows: cells. The format is functional, cell-based.
Series [13] is described as follows: MC4R antagonists, dose response, counter-screen for LGR2 antagonist project, cell-based, plate reader, cherry pick (AID 743444).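 Note: transfected HEK 293 cells stimulated with alpha-MSH peptide; potency of inhibitors of the alpha-MSH evoked signal.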 The format is functional.
Series [14] in a line: ZM109 Env clade C HIV-1 fusion inhibitors, dose response, HeLa effector, CEM target cells, luciferase, cherry-pick (AID 652058). The format is functional, cell-based.
The subject of the next series is Jurkat. Nature of the series: antigen receptor-induced NF-kB inhibitors, dose response, Jurkat, luciferase reporter, luminescence, B- and T-cell (AID 489004).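 Note: NF-kB luciferase reporter Jurkat cells stimulated with PMA plus ionomycin.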 The format is functional, cell-based. The note with it: Homo sapiens.
Series [15] can be described thus: inhibitors of SNCA 5'UTR-driven reporter translation, confirmation, H4 neuroglioma cells, luminescence (AID 1988). The format is functional, cell-based.
The nature of series [16]: reduction of Shn3 3'UTR firefly luciferase signal, dose response, Schnurri-3 inhibitor project, cell-based, Clone20 osteoblasts, cherry-pick, set 2 (AID 720490).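 Note: actives lower the luminescence signal as inhibitors.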 The format is functional.
A short description of series [17]: inhibitors of clade B AD8 Env fusion, dose response, cell-based, cherry-pick (AID 652062).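 Note: luciferase signal from cell-cell fusion driven by HIV-1 clade B AD8 Env; potency is for inhibitors of fusion seen as a drop in luminescence.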 The format is functional.
The nature of series [18]: inhibitors of firefly luciferase expression or activity, dose response, H4 neuroglioma cells, luminescence (AID 1990). The format is functional, cell-based.
Series [19] is described as follows: inhibitors of HIV Env-driven cell fusion, dose response, cherry-pick (AID 652057). The format is functional, cell-based.
Series [20] deals with Luciferin 4-monooxygenase (Photuris pensylvanica, UniProt Q27757). Kind of series: firefly luciferase enzyme inhibitors, dose response, counter-screen for HSF-1 reporter inhibitor project, biochemical, Cell Titer Glo, luminescence, cherry-picks (AID 588847).
Chain of Luciferin 4-monooxygenase (Q27757 whole entry): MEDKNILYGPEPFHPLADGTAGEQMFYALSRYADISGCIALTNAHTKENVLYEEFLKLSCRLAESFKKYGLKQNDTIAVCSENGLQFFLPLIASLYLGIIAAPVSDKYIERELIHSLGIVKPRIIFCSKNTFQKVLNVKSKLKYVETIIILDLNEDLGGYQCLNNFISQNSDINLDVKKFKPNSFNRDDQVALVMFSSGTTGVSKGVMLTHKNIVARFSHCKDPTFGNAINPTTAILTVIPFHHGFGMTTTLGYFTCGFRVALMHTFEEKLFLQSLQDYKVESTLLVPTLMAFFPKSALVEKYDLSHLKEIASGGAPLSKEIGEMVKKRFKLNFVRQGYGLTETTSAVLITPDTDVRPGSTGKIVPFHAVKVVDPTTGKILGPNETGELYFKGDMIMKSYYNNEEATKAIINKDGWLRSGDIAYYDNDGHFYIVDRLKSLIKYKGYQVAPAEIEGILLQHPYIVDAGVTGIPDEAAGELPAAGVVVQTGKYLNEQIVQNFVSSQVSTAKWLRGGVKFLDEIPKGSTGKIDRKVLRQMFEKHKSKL
Series [21] in a line: LGR2 antagonists, dose response, cell-based, HEK293, CRE-luciferase reporter, cherry pick, set 2 (AID 743343).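 Note: transfected cells were stimulated with diluted bursicon conditioned medium after compound addition.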 The format is functional.
For series [22], the target named is T1, Heat shock factor protein 1. Kind of series: HSF1 potentiators in luciferase reporter cells, confirmation, cell-based, NIH3T3, luminescence, dose retest (AID 435004).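 Note: stress induced by proteasome inhibitor MG132 added 30 min after compound; luciferase reporter driven by HSF1 response element in NIH3T3 cells; actives raise luminescence as potentiators of the MG132 stress response.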 The format is functional.
The target of series [23] is Induced myeloid leukemia cell differentiation protein Mcl-1 (Homo sapiens, UniProt Q07820). The format is functional.
Chain of Induced myeloid leukemia cell differentiation protein Mcl-1 (Q07820 whole entry): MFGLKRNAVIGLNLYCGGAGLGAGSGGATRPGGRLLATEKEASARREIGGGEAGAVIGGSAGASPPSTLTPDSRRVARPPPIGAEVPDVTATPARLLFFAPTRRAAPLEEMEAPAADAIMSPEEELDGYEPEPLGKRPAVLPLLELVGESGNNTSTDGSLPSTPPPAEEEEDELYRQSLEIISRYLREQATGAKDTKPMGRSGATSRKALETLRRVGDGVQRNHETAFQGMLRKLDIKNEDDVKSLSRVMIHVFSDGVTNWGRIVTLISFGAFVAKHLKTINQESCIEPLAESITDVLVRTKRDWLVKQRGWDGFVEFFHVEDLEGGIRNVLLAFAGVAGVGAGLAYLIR
For a further series, the target named is NS3 (Hepatitis C virus, UniProt A3EZJ3). Kind of series: PubChem AID 2173. More on the design: species or system Hepacivirus hominis.
Chain of NS3 (A3EZJ3 whole entry): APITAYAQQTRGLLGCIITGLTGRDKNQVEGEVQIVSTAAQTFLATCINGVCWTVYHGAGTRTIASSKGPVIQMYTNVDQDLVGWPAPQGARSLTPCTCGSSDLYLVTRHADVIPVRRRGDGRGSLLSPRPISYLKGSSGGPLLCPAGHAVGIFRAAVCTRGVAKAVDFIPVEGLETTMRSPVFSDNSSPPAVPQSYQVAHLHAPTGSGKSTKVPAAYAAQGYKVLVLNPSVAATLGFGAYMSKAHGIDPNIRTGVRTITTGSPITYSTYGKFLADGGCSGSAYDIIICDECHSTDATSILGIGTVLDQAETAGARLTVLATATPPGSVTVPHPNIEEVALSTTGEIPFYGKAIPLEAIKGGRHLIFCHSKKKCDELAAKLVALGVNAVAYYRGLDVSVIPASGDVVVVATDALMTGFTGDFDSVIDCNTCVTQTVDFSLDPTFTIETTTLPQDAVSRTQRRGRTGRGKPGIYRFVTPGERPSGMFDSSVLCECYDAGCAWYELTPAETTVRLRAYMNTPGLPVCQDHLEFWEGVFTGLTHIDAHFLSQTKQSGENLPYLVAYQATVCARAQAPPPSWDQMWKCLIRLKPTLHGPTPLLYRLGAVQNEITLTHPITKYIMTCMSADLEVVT
The target in series [24] is Mothers against decapentaplegic homolog 3 (Homo sapiens, UniProt P84022). Nature of the series: Smad3 binding inhibitors, lysate ELISA, dose response, cell lysate, secondary confirmation, chemiluminescent ELISA, HEK293 lysate (AID 1058). The format is functional. A general note: An ELISA detects its analyte on a solid surface through an enzyme-linked reagent.
Chain of Mothers against decapentaplegic homolog 3 (P84022 whole entry): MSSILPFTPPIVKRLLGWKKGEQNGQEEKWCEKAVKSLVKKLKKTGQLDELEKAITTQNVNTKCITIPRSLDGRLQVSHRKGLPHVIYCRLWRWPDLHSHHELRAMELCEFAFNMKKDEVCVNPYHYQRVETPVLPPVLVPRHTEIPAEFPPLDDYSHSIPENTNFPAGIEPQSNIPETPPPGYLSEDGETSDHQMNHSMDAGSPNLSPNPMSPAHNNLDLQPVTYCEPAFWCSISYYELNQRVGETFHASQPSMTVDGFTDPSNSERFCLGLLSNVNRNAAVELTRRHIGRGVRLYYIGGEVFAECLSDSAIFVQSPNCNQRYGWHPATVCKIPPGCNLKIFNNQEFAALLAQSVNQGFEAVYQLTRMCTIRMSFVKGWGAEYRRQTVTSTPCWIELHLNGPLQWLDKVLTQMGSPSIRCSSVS
A further series concerns the target Cytochrome P450 2C9 (Homo sapiens, UniProt P11712).
The target in another series is Cytochrome P450 2D6 (Homo sapiens, UniProt P10635).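 Note: CYP2D6 member of a cytochrome P450 panel assay.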
Chain of Cytochrome P450 2D6 (P10635 whole entry): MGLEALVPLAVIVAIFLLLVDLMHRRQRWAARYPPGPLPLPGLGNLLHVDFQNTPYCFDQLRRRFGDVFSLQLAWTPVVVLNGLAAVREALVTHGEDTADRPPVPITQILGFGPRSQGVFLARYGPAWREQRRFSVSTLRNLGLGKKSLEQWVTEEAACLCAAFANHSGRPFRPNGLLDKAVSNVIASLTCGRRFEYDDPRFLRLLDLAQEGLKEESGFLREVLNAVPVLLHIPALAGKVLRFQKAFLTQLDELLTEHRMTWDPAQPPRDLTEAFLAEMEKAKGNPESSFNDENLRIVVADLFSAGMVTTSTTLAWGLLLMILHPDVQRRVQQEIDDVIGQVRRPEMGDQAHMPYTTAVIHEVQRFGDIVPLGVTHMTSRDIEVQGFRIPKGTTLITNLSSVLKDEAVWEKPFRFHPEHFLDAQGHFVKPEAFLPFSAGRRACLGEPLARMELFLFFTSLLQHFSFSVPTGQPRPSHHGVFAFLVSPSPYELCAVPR
The target of series [25] is T2, Alkaline phosphatase, tissue-nonspecific isozyme (Homo sapiens, UniProt P05186).
T2 sequence (P05186 whole entry): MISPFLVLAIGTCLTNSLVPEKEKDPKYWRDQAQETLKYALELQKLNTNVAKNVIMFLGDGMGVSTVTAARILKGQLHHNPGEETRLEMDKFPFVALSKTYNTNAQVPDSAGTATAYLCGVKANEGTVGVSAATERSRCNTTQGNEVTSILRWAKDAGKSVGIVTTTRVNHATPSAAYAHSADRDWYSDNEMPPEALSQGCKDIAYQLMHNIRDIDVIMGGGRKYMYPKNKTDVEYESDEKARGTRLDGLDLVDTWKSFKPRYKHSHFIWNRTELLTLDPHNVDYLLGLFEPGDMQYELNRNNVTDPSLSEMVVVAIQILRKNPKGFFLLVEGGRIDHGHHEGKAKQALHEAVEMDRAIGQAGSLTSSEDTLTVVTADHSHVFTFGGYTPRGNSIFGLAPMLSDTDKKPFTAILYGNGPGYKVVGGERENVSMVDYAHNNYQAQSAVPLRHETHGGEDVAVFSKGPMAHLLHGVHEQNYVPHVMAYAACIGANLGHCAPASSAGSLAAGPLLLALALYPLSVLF

Active and inactive are the calls of the source.

Usually EC50 stands for the concentration needed to bring the measured effect to its halfway point. For orientation: IC50 means the point on the concentration scale where inhibition reaches its midpoint. What is called AC50 is the concentration at which the activity in the assay is half-maximal.

Chain of Neuropeptide Y receptor type 2 (P49146 whole entry): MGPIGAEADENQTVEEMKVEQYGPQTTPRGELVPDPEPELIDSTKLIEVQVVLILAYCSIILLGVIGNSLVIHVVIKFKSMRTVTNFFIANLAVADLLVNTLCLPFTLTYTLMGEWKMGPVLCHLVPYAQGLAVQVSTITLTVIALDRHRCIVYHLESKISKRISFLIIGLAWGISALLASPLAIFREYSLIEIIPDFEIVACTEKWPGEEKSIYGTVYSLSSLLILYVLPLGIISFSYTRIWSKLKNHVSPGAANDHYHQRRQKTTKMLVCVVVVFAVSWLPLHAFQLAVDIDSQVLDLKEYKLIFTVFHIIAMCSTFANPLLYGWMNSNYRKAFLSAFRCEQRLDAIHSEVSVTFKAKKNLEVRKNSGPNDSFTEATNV
Chain of Cytochrome P450 2C9 (P11712 whole entry): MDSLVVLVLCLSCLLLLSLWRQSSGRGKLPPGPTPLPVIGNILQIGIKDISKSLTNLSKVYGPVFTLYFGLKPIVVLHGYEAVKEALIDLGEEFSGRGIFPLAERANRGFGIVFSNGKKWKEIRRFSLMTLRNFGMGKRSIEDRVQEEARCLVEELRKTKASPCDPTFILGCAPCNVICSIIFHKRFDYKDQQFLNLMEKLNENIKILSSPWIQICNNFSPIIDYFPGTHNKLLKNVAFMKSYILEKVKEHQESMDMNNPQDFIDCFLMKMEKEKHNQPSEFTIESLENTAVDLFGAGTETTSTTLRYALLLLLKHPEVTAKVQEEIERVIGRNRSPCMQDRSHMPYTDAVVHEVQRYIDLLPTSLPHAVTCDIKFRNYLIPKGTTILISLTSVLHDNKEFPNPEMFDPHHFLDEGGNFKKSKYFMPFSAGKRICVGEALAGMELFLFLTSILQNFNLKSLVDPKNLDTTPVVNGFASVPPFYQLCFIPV

Regarding `CCN(CC)S(=O)(=O)c1ccc2ncc(C(=O)NCCC3=CCCCC3)c(O)c2c1`, the results for the EC50 (in the series with HEK293; in series [2]; in series [3]) were 10100 nM (not active), 13800 nM (not active) and 13300 nM (not active), respectively. Also, the CC50 in series [1] was > 40000 nM (active).
As for `COc1cccc(C(=O)n2c3ccccc3c3ccccc32)c1`, the EC50 with Streptococcus was > 500000 nM (not active).
On to `O=C(CN1C(=O)c2ccccc2S1(=O)=O)c1ccc2c(c1)OCCCO2`, for which the EC50 in series [4] was 15 nM (active); in series [5], 16 nM (active); in [9], < 160 nM (active); in series [10], < 100 nM (active); in “cells” it was 21 nM (active); in series [15], < 100 nM (active). Further, in series [18], the concentration giving a half-maximal response (EC50) is < 100 nM (active). Moreover, the results for the IC50 (in series [6]; in [7]; in the series on Jurkat) were > 80000 nM (inactive), 816 nM (active) and < 160 nM (active), respectively. Moreover, the AC50 was 50300 nM (active) in series [8]; < 260 nM (active) in [11]; 262 nM (active) in [12]; 69.5 nM (active) in [13]; 725 nM (active) in series [14]; 631 nM (active) in [16]. The AC50 was < 260 nM (active) in [17], < 260 nM (active) in [19], > 52000 nM (inactive) in series [20] and < 68 nM (active) in series [21].
For `COc1ccc(NC2=NC(=O)/C(=C\C=C\c3ccco3)S2)cc1`, the EC50 in series [22] is > 260000 nM (inactive). For the same molecule, the results for the IC50 (in [23]; against NS3) were 3020 nM (active) and 25900 nM (not active), respectively.
For `O=C(O)c1cc2cc(O)ccc2[nH]1`, the IC50 in [24] is 1770 nM (not active).
`CCN=C(S)NNC(=O)CCn1c2ccccc2c2ccccc21`: the AC50 entry is “inconclusive” at Cytochrome P450 2C9 and 14100 nM (inconclusive) on Cytochrome P450 2D6. Further, in series [25], the EC50 is > 100000 nM (not active).
